Results as given in publication PMC11271312 (Nature Communications, 2024).

Experiments:
[1] = 80% pooled plasma from rats and 20% PBS (pH 7.4); conditions: rat, 37 °C, up to […]
[2] = 80% pooled plasma from dogs and 20% PBS (pH 7.4); conditions: dog, 37 °C, up to […]
[3] = 80% pooled plasma from humans and 20% PBS (pH 7.4); conditions: human, 37 °C, up to […]
[4] = 80% pooled plasma from minipigs and 20% PBS (pH 7.4); conditions: minipig, 37 °C, up to […]
[5] = plasma from minipigs dosed intravenously with insulin icodec (2 nmol/kg); conditions: Göttingen Minipigs, up to 10 days after dosing

Substance	fragment found [1]	fragment found [2]	fragment found [3]	fragment found [4]	fragment found [5]
B25H, desB30 | C18 diacid	B-chain (internal disulphide bond connecting Cys 7 with Cys 19), 5 h	–	–	–	–
A14E, B25H, desB30 | C18 diacid	B-chain (internal disulphide bond connecting Cys 7 with Cys 19), 48 h	–	–	–	–
B16H, desB30 | C18 diacid	B-chain (internal disulphide bond connecting Cys 7 with Cys 19), 24 h	B-chain (internal disulphide bond connecting Cys 7 with Cys 19), 24 h	B-chain (internal disulphide bond connecting Cys 7 with Cys 19), 24 h	B-chain (internal disulphide bond connecting Cys 7 with Cys 19), 5 h	–
A14E, desB30 | C18 diacid	B-chain (internal disulphide bond connecting Cys 7 with Cys 19), 24 h	–	–	–	–
A14E B16H B25H B29Nε-C20 diacid-LγGlu–2xAdo desB30 human insulin	insulin B-chain with internal disulphide Cys 7–Cys 19, 24 h	insulin B-chain with internal disulphide Cys 7–Cys 19, 96 h	insulin B-chain with internal disulphide Cys 7–Cys 19, 24 h	insulin B-chain with internal disulphide Cys 7–Cys 19, 48 h	free insulin icodec B-chain (disulphide Cys 7–Cys 19)
desB30 | C18 diacid	B-chain (internal disulphide bond connecting Cys 7 with Cys 19), 2.5 h	–	–	–	–
A14E, B25H, desB30 | C20 diacid	B-chain (internal disulphide bond connecting Cys 7 with Cys 19), 24 h	–	B-chain (internal disulphide bond connecting Cys 7 with Cys 19), 96 h	B-chain (internal disulphide bond connecting Cys 7 with Cys 19), 168 h	–
